Drawing on PubChem BioAssay AID256 (DTP/NCI, 2004), this text covers T/C for 23 compounds.

In the experiment the test system is CD2F1 mice, L1210 leukemia ip, survival T/C. Briefly: NCI In Vivo Anticancer Drug Screen. Data for tumor model L1210 Leukemia (intraperitoneal) in CD2F1 (CDF1) mice. Conditions: higher = longer survival. An outline of the steps:
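Vehicle-treated tumor-bearing mice served as controls (C) for compound-treated mice (T). Reported figure is T divided by C.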

Where [1] appears, read: endpoint: mean survival time, dose: 100.0 mg/kg/injection, schedule: Q01DX001 (ip), vehicle: carboxymethylcellulose (CMC).
Where [2] appears, read: endpoint: mean survival time, dose: 100.0 mg/kg/injection, schedule: Q01DX009 (ip), vehicle: saline with Tween-80.
The mark [3] stands for this setting: endpoint: mean survival time, dose: 200.0 mg/kg/injection, schedule: Q01DX009 (ip), vehicle: saline with Tween-80.
[4] abbreviates: endpoint: mean survival time, dose: 400.0 mg/kg/injection, schedule: Q01DX009 (ip), vehicle: saline with Tween-80.
Setting [5] is: endpoint: mean survival time, dose: 100.0 mg/kg/injection, schedule: Q01DX001 (ip), vehicle: saline.
The mark [6] stands for this setting: endpoint: mean survival time, dose: 200.0 mg/kg/injection, schedule: Q01DX001 (ip), vehicle: saline.
The mark [7] stands for this setting: endpoint: mean survival time, dose: 400.0 mg/kg/injection, schedule: Q01DX001 (ip), vehicle: saline.
Setting [8] is: endpoint: mean survival time, dose: 100.0 mg/kg/injection, schedule: Q04DX003 (ip), vehicle: saline with Tween-80.
Where [9] appears, read: endpoint: mean survival time, dose: 200.0 mg/kg/injection, schedule: Q04DX003 (ip), vehicle: saline with Tween-80.
[10] abbreviates: endpoint: mean survival time, dose: 400.0 mg/kg/injection, schedule: Q04DX003 (ip), vehicle: saline with Tween-80.
Where [11] appears, read: endpoint: mean survival time, dose: 75.0 mg/kg/injection, schedule: Q01DX001 (ip), vehicle: saline.
Setting [12] is: endpoint: mean survival time, dose: 25.0 mg/kg/injection, schedule: Q01DX009 (ip), vehicle: saline with Tween-80.
The mark [13] stands for this setting: endpoint: mean survival time, dose: 50.0 mg/kg/injection, schedule: Q01DX009 (ip), vehicle: saline with Tween-80.
Where [14] appears, read: endpoint: mean survival time, dose: 100.0 mg/kg/injection, schedule: Q04DX002 (ip), vehicle: saline with Tween-80.
Setting [15] is: endpoint: mean survival time, dose: 200.0 mg/kg/injection, schedule: Q01DX001 (ip), vehicle: saline with Tween-80.

Several values for one entry are separate records, joined by “and”; a condition that tells them apart may be missing. Equal entries are not always repeated. Inconclusive results and toxic doses are left out.

For the compound `Brc1ccc2c(c1)Cc1cc(N=Cc3ccc4c(c3)OCO4)ccc1-2`, the T/C runs as follows: under setting [1], 97 % of control; (endpoint: mean survival time, dose: 200.0 mg/kg/injection, schedule: Q01DX001 (ip), vehicle: carboxymethylcellulose (CMC)) 94 % of control; (endpoint: mean survival time, dose: 400.0 mg/kg/injection, schedule: Q01DX001 (ip), vehicle: carboxymethylcellulose (CMC)) 100 % of control.
Take `CC(=O)OCc1ccc2ccccc2c1`: the T/C under setting [2] is 100 % of control, the T/C under setting [3] is 102 % of control and the T/C under setting [4] was 118 % of control.
For `CCCC(=O)c1cc(O)ccc1O`, the T/C runs as follows: under setting [5], 101 % of control; under setting [6], 96 % of control; under setting [7], 104 % of control.
On to `CN(C)C(=O)OC1CCCC1[N+](C)(C)CCCCCCCC[N+](C)(C)C1CCCC1OC(=O)N(C)C` (centres undefined), for which the T/C (endpoint: mean survival time, dose: 0.19 mg/kg/injection, schedule: Q01DX009 (ip), vehicle: saline) was 104 % of control; the T/C (endpoint: mean survival time, dose: 0.31 mg/kg/injection, schedule: Q04DX003 (ip), vehicle: saline) is 100 % of control; the T/C (endpoint: mean survival time, dose: 0.39 mg/kg/injection, schedule: Q01DX009 (ip), vehicle: saline) was 104 % of control; the T/C (endpoint: mean survival time, dose: 0.62 mg/kg/injection, schedule: Q04DX003 (ip), vehicle: saline) was 98 % of control; the T/C (endpoint: mean survival time, dose: 0.78 mg/kg/injection, schedule: Q01DX009 (ip), vehicle: saline) was 98 % of control.
With `NP(=O)(OCCC(OCc1ccccc1)OCc1ccccc1)N(CCCl)CCCl` (centres undefined), the T/C runs as follows: (endpoint: mean survival time, dose: 25.0 mg/kg/injection, schedule: Q01DX001 (ip), vehicle: DMSO) 100 % of control; (endpoint: mean survival time, dose: 50.0 mg/kg/injection, schedule: Q01DX001 (ip), vehicle: DMSO) 100 % of control; (endpoint: mean survival time, dose: 100.0 mg/kg/injection, schedule: Q01DX001 (ip), vehicle: DMSO) 91 % of control; (endpoint: mean survival time, dose: 200.0 mg/kg/injection, schedule: Q01DX001 (ip), vehicle: DMSO) 97 % of control; (endpoint: mean survival time, dose: 400.0 mg/kg/injection, schedule: Q01DX001 (ip), vehicle: DMSO) 103 % of control.
Take `COc1ccc2c(c1)C1(C)CCC(=O)C(C)=C1CC2` (centres undefined): the T/C was 105 % of control under setting [5], 98 % of control under setting [6] and 98 % of control under setting [7].
Turning to `Cc1cc(=O)[nH]c(Nc2ccccc2)n1`, the T/C was 105 % of control under setting [8], 97 % of control under setting [9] and 88 % of control under setting [10].
As for `CCOC(=O)/C(C#N)=N/O`, under setting [11], the T/C was 100 % of control.
`CCCCCCCCCCCCCC(=O)N1CCOCC1`: the T/C reads like this: under setting [2], 96 % of control; under setting [8], 97 % of control; under setting [3], 96 % of control; under setting [9], 95 % of control; under setting [4], 100 % of control; under setting [10], 97 % of control.
In the case of `COc1ccccc1NC(=O)Oc1ccc(C2CCCCC2)cc1`, the T/C is, setting by setting: under setting [12], 108 % of control; (endpoint: mean survival time, dose: 25.0 mg/kg/injection, schedule: Q04DX002 (ip), vehicle: saline with Tween-80) 100 % of control; under setting [13], 97 % of control; (endpoint: mean survival time, dose: 50.0 mg/kg/injection, schedule: Q04DX002 (ip), vehicle: saline with Tween-80) 100 % of control; under setting [2], 104 % of control; under setting [14], 92 % of control and 98 % of control.
Turning to `CC1(C)OC1CS(=O)c1ccccc1` (centres undefined), the T/C is 95 % of control (endpoint: mean survival time, dose: 12.5 mg/kg/injection, schedule: Q01DX009 (ip), vehicle: saline with Tween-80); 98 % of control (endpoint: mean survival time, dose: 12.5 mg/kg/injection, schedule: Q01DX009 (ip), vehicle: saline); 98 % of control under setting [12]; 93 % of control (endpoint: mean survival time, dose: 25.0 mg/kg/injection, schedule: Q01DX009 (ip), vehicle: saline); 95 % of control under setting [13]; 101 % of control (endpoint: mean survival time, dose: 50.0 mg/kg/injection, schedule: Q01DX009 (ip), vehicle: saline). Further, the T/C by setting is: under setting [2], 95 % of control; (endpoint: mean survival time, dose: 100.0 mg/kg/injection, schedule: Q01DX009 (ip), vehicle: saline) 95 % of control; under setting [3], 98 % of control; (endpoint: mean survival time, dose: 200.0 mg/kg/injection, schedule: Q01DX009 (ip), vehicle: saline) 105 % of control; under setting [4], 93 % of control; (endpoint: mean survival time, dose: 400.0 mg/kg/injection, schedule: Q01DX009 (ip), vehicle: saline) 98 % of control.
Take `NN(C(=O)c1ccccc1)c1ccccc1`: the T/C is 98 % of control under setting [2], 95 % of control under setting [8], 97 % of control under setting [9] and 100 % of control under setting [10].
For `CC1C2OC2C(C)S1(=O)=O` (centres undefined), the T/C (endpoint: mean survival time, dose: 100.0 mg/kg/injection, schedule: Q01DX001 (ip), vehicle: saline with Tween-80) was 100 % of control; the T/C under setting [14] was 93 % of control; the T/C under setting [15] is 101 % of control; the T/C (endpoint: mean survival time, dose: 200.0 mg/kg/injection, schedule: Q04DX002 (ip), vehicle: saline with Tween-80) was 101 % of control; the T/C (endpoint: mean survival time, dose: 400.0 mg/kg/injection, schedule: Q01DX001 (ip), vehicle: saline with Tween-80) is 101 % of control; the T/C (endpoint: mean survival time, dose: 400.0 mg/kg/injection, schedule: Q04DX002 (ip), vehicle: saline with Tween-80) was 89 % of control.
Take `CS(=O)(=O)CS(=O)(=O)OCCF`: the T/C (endpoint: median survival time, dose: 3.12 mg/kg/injection, schedule: Q01DX009 (ip), vehicle: saline) is 112 % of control; the T/C (endpoint: median survival time, dose: 3.13 mg/kg/injection, schedule: Q01DX009 (ip), vehicle: saline) was 119 % of control; the T/C (endpoint: median survival time, dose: 12.5 mg/kg/injection, schedule: Q01DX009 (ip), vehicle: saline) is 179 % of control and 189 % of control; the T/C (endpoint: median survival time, dose: 25.0 mg/kg/injection, schedule: Q01DX009 (ip), vehicle: saline) is 182 % of control and 349 % of control.
For the compound `CCc1ccc2ccccc2c1N`, the T/C under setting [13] is 108 % of control, the T/C under setting [2] was 110 % of control, the T/C under setting [15] is 94 % of control and the T/C under setting [3] was 118 % of control.
Regarding `Cc1cccc(C)c1NC1=CC(=O)C(=O)c2ccccc21`, the T/C was 95 % of control under setting [11]; 89 % of control (endpoint: mean survival time, dose: 150.0 mg/kg/injection, schedule: Q01DX001 (ip), vehicle: saline); 97 % of control (endpoint: mean survival time, dose: 300.0 mg/kg/injection, schedule: Q01DX001 (ip), vehicle: saline).
Take `N#CC(Cl)(Cl)C(N)=O`: the T/C reads like this: (endpoint: mean survival time, dose: 1.56 mg/kg/injection, schedule: Q04DX002 (ip), vehicle: saline) 102 % of control; (endpoint: mean survival time, dose: 3.13 mg/kg/injection, schedule: Q04DX002 (ip), vehicle: saline) 92 % of control; (endpoint: mean survival time, dose: 6.25 mg/kg/injection, schedule: Q04DX002 (ip), vehicle: saline) 98 % of control.
Regarding `CCC(=O)c1cc([N+](=O)[O-])ccc1N`, the T/C is 95 % of control under setting [8] and 95 % of control under setting [9].
On to `c1ccc2c(c1)cnc1cc3c(cc12)ncc1ccccc13`, for which the T/C by setting is: under setting [5], 98 % of control; under setting [6], 106 % of control; under setting [7], 116 % of control.
For the compound `O=CNc1ccc2c(c1)C(Br)c1ccccc1-2` (centres undefined), the T/C was 93 % of control under setting [2], 97 % of control under setting [8], 100 % of control under setting [9] and 88 % of control under setting [10].
`CCOP(=O)(NCc1ccco1)OCC`: the T/C by setting is: (endpoint: mean survival time, dose: 50.0 mg/kg/injection, schedule: Q01DX001 (ip), vehicle: carboxymethylcellulose (CMC)) 106 % of control; under setting [1], 112 % of control.
For `COC(=O)CCCCC(C)=O`, the T/C was 101 % of control under setting [2]; 98 % of control (endpoint: mean survival time, dose: 100.0 mg/kg/injection, schedule: Q04DX003 (ip), vehicle: saline sonified); 101 % of control under setting [3]; 98 % of control (endpoint: mean survival time, dose: 200.0 mg/kg/injection, schedule: Q04DX003 (ip), vehicle: saline sonified); 98 % of control under setting [4]; 102 % of control (endpoint: mean survival time, dose: 400.0 mg/kg/injection, schedule: Q04DX003 (ip), vehicle: saline sonified).
For `CCOC(=O)C1(C2=NC(C)(C)CC(C)O2)CCCCC1` (centres undefined), the T/C is, setting by setting: (endpoint: mean survival time, dose: 100.0 mg/kg/injection, schedule: Q04DX003 (ip), vehicle: acetone) 96 % of control; (endpoint: mean survival time, dose: 200.0 mg/kg/injection, schedule: Q04DX003 (ip), vehicle: acetone) 90 % of control; (endpoint: mean survival time, dose: 400.0 mg/kg/injection, schedule: Q04DX003 (ip), vehicle: acetone) 105 % of control.
